Results published in patent US12133855B2, “Lipid-like nanocomplexes and uses thereof” (Trustees of Tufts College, priority 2018, dated 2024).

Tests used:
[1] = Thiol-triggered size variation of OCholB LNPs (DTT, cysteine; DLS); format: physicochemical; details: 10 mM DTT, 24 h
Source text: The thiol-trigged degradation and dissociation of the OCholB LNPs were studied by time-dependent DLS measurements and TEM observation. […] The disruption of the vesicle structure is considered to be resulted from the thiol-exchange and disulfide bond cleavage reactions of OCholB lipidoids. We next investigated whether the thiol-containing molecules (e.g. albumin, cysteine, homocysteine, cysteinylglycine, etc.) in the serum may induce the structural disintegration of these disulfide bond-containing LNPs. The stabilities of LNPs in the presence of 20 μM of L-cysteine (Cys), which mimics the free thiols on the small- and macromolecules presented in the serum, were examined. […] While the degrees of size changes vary between lipidoids with different amine head groups, all lipidoids were more responsive to DTT (modeling intracellular conditions) than to Cysteine (modeling conditions in the blood serum).

HeLa cells [2] = test: Internalization of Nile red loaded nanoparticles (NR+ cells); format: cell-based; details: 8 h of exposure
Description: (§1) The internalization kinetics and efficiencies of OCholB LNPs were then studied using NR loaded LNPs and HeLa cells. […] Next, all of the NR delivery efficiencies of eight OCholB LNPs were determined after 8 h of exposure. […] Representative fluorescent images of NR/LNPs (NR/75-OCholB, NR/76-OCholB and NR/77-OCholB) treated HeLa cells are shown in FIG. 12D, from which it is easily observed that NR was delivered into the cells and mainly distributed in cytoplasm, by OCholB LNPs. Next, the internalization of negatively charged hydrophilic fluorescent dye, calcein, was studied. […] Next, the use of OCholB LNPs for the intracellular delivery of macromolecular cargo was explored, using fluorescent recombinant (−30)GFP-Cre protein and HeLa-DsRed cells as the model system. […] Delivery efficiency was tested at a range of (−30)GFP-Cre protein concentrations (25, 50 and 100 nM), with a consistent lipid/protein ratio (i.e., delivery with the final lipid concentration of 1.7, 3.3, and 6.6 μg mL^−1 respectively). 33.2%, 43.8% and 74% of GFP positive (GFP^+) cells were recorded for (−30)GFP-Cre/Lpf2k treated cells with the concentration of (−30)GFP-Cre 25 nM, 50 nM and 100 nM, respectively. […] The typical flow cytometry profiles of naked (−30)GFP-Cre protein and (−30)GFP-Cre loaded nanoparticles ((−30)GFP-Cre/75-OCholB, (−30)GFP-Cre/76-OCholB, (−30)GFP-Cre/77-OCholB and (−30)GFP-Cre/Lpf2k) treated HeLa-DsRed cells were shown in and FIG. 12H ([lipidoid]=6.6 μg mL^−1 and [(−30)GFP-Cre]=100 nM), which is consistent with the statistical results shown in FIG. 12G. Furthermore, the representative fluorescent images from the protein and protein/nanoparticle treated HeLa-DsRed cells are also shown in FIG. 12I.

HeLa-DsRed cells [3] = format: cell-based; details: (−30)GFP-Cre 25, 50 and 100 nM
Description: as §1

HeLa cells [4] = test: GFP mRNA delivery (GFP+ cells); format: cell-based; details: LNP/mRNA=10/1; [mRNA]=0.86 μg mL^−1; 24 h exposure
Source text: Messenger RNA delivery has great potentials for cancer therapy, protein replacement therapy and neurological disorder treatments.^42 The intracellular delivery of mRNA using OCholB LNPs was studied using GFP mRNA and different cell lines (HeLa, B16F10, HEK-293, NIH/3T3 and Jurkat). The weight ratio of LNP/mRNA was optimized at first using HeLa cells. […] The weight ratio of LNP/mRNA=10/1 was then chose for the following mRNA delivery studies. […] Then the intracellular delivery efficiencies of all fully substituted OCholB LNPs were tested against HeLa cells, and Lpf2k and naked GFP mRNA were used as controls (LNP/mRNA=10/1; [mRNA]=0.86 μg mL^−1; 24 h exposure). […] As to the OCholB LNPs, 75-OCholB (62.0% of GFP^+ cells), 76-OCholB (79.8%), 77-OCholB (73.5%), 78-OCholB (67.1%), 80-OCholB (55.6%), 81-OCholB (51.6%) and 304-OCholB (52.1%) are all determined to be effective. Typical fluorescent images of mRNA/LNPs (mRNA/75-OCholB, mRNA/76-OCholB and mRNA/77-OCholB) treated HeLa cells are shown in FIG. 14C. Comparing to untreated HeLa cells, strong green fluorescent signals were recoded from nanoparticles incubated cells, which is consistent with the flow cytometry data as shown in FIG. 14D. Meanwhile, both 87-OCholB (6.1%) and 90-OCholB (2.5%) are found to be inefficient for GFP mRNA delivery into HeLa cells, which is consistent with the internalization studies using NR (FIG. 12C) and (−30)GFP-Cre protein (FIG. 12F) as the fluorescent reporters.

HeLa-DsRed cells [5] = test: Genome editing efficiency of (−30)GFP-Cre/OCholB LNPs (DsRed+ cells); format: cell-based; details: (−30)GFP-Cre 25, 50 and 100 nM
Source text: In this context, the internalization mechanism of the (−30)GFP-Cre/LNPs complexes was studied at first, by introducing different endocytosis inhibitors, i.e., sucrose (clathrin-mediated endocytosis inhibitor), methyl-β-cyclodextrin (M-β-CD, cholesterol-depleting agent), dynasore (dynamin II inhibitor) and nystatin (caveolin-mediated endocytosis inhibitor), following our previously reported procedures. […] Comparing to other combinatorial library studies, it is clear that even loaded with same cargoes and tested against same cell line, different lipidoids with different chemical structures could be internalized through very distinct pathways. Next, the genome-editing efficiencies of (−30)GFP-Cre/LNPs were determined by flow cytometry after 24 h of incubation (with 8 h of (−30)GFP-Cre/LNPs complex exposure). Three different concentrations of protein/lipidoid complexes (25 nM/1.7 μg mL^−1, 50 nM/3.4 μg mL^−1, and 100 nM/6.6 μg mL^−1) were tested for each lipidoid nanoparticle. […] For example, the DsRed^+ cells were recorded as 10.5%/24.9%/88.9%, 13.5%/55.4%/88.8%, and 27.7%/47.8%/94.7% for (−30)GFP-Cre loaded 75-OCholB, 76-OCholB and 77-OCholB, respectively, at the protein concentration of 25, 50 and 100 nM. […] Then, the cytotoxicity profiles of (−30)GFP-Cre/LNPs, (−30)GFP-Cre/Lpf2k and naked (−30)GFP-Cre at different concentrations against HeLa-DsRed cells (8 h of exposure; (−30)GFP-Cre/LNPs=25 nM/1.7 μg mL^−1, 50 nM/3.4 μg mL^−1, and 100 nM/6.6 μg mL^−1) are measured using MTT assay after 24 h of incubation. […] For (−30)GFP-Cre/75-OCholB treated cells, the viabilities were determined to be 95.5%, 91.8% and 83.1%, at the protein concentration of 25, 50 and 100 nM, respectively; the numbers for (−30)GFP-Cre/76-OCholB and (−30)GFP-Cre/77-OCholB are 97.8%/98.2%/97.2 and 100.9%/96.6%/98.6%. […] Meanwhile, the morphology changes of HeLa-DsRed cell treated with different nanoparticle formulations were studied and the results are shown in FIG. 15E. […] Samples found in upper left quadrant are non-toxic and inefficient for delivery; samples in lower left quadrant are toxic and inefficient; samples in lower right quadrant are efficient but toxic; samples in upper right quadrant are non-toxic and efficient, which would be top candidates for further study. It is clear that Lpf2k (shown in dotted purple circle) at high concentration is relatively efficient for genome editing, while also toxic to the target cells. On the other hand, most of the (−30)GFP-Cre loaded OCholB LNPs are almost non-toxic when compared to (−30)GFP-Cre/Lpf2k, similar to naked (−30)GFP-Cre protein. 87-OCholB, 90-OCholB and 304-OCholB (shown in dotted dark blue circle) are less efficient for genome-editing; while high genome editing efficacy and excellent tolerability were achieved by using 75-OCholB, 76-OCholB and 77-OCholB (shown in dotted green circle).

HeLa-DsRed cells [6] = test: Cre-mediated gene recombination (DsRed expression) after (−30)GFP-Cre/LNP delivery; format: cell-based; details: 24 h; 25 nM (−30)GFP-Cre; lipidoid 3.3 mg/L
Description: (§2) The final (−30)GFP-Cre protein concentration is 25 nM, and lipidoid concentration is 3.3 mg/L. For the gene recombination functional study, HeLa-DsRed cells were treated with same conditions and the red fluorescence emission from DsRed was analyzed by flow cytometry 24 h after delivery.
The top 12 of LNPs identified through intracellular delivery screening experiments were further tested for gene recombination using HeLa-DsRed model cells. The expression of DsRed from Cre protein mediated gene recombination was analyzed after 24 h of co-incubation with free (−30)GFP-Cre protein and protein loaded LNPs. […] Most of the test LNPs, on the other hand, efficiently delivered (−30)GFP-Cre protein and induced gene recombination, with 14-46% of the cells positive for DsRed.

HeLa-DsRed cells [7] = test: Intracellular delivery of (−30)GFP-Cre/LNP (GFP-positive cells); format: cell-based; details: flow cytometry, 6 h; 25 nM (−30)GFP-Cre; lipidoid 3.3 mg/L
Description: as §2
A Cre recombinase protein fused to a negatively supercharged GFP variant ((−30)GFP-Cre) was used as a model cargo protein. The (−30)GFP-Cre protein was able to complex with cationic LNPs through electrostatic attraction and other types supramolecular interactions. The cellular uptake of LNPs could be determined by direct analysis of intracellular GFP fluorescent intensity as reported in Wang. HeLa-DsRed cells were used in this study, which expressed red fluorescent DsRed upon Cre-mediated recombination to facilitate the functional study of delivered proteins in the following study.
The (−30)GFP-Cre protein loaded LNPs (GFP-Cre/LNPs) were prepared at first by simply mixing precalculated amount of aqueous solution of LNPs and protein at ambient conditions. For the intracellular delivery, after incubation with GFP-Cre/LNPs nanoparticles for 6 h, the GFP-positive cells were observed using fluorescence microscopy, harvested and counted by flow cytometry. […] The intracellular (−30)GFP-Cre protein delivery efficiencies were further quantified by flow cytometry.

| SMILES | increase in averaged hydrodynamic diameter [1] | NR^+ cells (HeLa cells [2]) | (−30)GFP-Cre delivery efficiency (GFP^+ cells), overall (HeLa-DsRed cells [3]) | GFP^+ cells (HeLa cells [4]) | genome editing efficacy (DsRed^+ cells), overall (HeLa-DsRed cells [5]) | cells positive for DsRed (protein transfection efficiency) (HeLa-DsRed cells [6]) | GFP-positive cells (HeLa-DsRed cells [7]) |
| --- | --- | --- | --- | --- | --- | --- | --- |
| CC(C)CCCC(C)C1CCC2C3CC=C4CC(OC(=O)NCCSSCCOC(=O)CCN(CCCN(CCO)CCO)CCC(=O)OCCSSCCNC(=O)OC5CCC6(C)C(=CCC7C6CCC6(C)C(C(C)CCCC(C)C)CCC76)C5)CCC4(C)C3CCC12C (stereo not drawn) [Lipidoid 87-OCholB] | 210.3% | lowest transfection efficacy, comparable to the untreated control group | lowest delivery efficiencies | 6.1% | less efficient at delivery |  |  |
| CC(C)CCCC(C)C1CCC2C3CC=C4CC(OC(=O)NCCSSCCOC(=O)CCN(CCC(=O)OCCSSCCNC(=O)OC5CCC6(C)C(=CCC7C6CCC6(C)C(C(C)CCCC(C)C)CCC76)C5)CCN5CCOCC5)CCC4(C)C3CCC12C (stereo not drawn) [Lipidoid 90-OCholB] | 179.5% | 12.9% | lowest delivery efficiencies | 2.5% | less efficient at delivery |  |  |
| CCCCCCCCCCCCCCSCCOC(=O)CCN(CCC(=O)OCCSCCCCCCCCCCCCCC)CCC1CCCN1C (stereo not drawn) [Lipidoid 77-O17S] |  |  |  |  |  | 38.6% |  |
| CCCCCCCCCCCCCCSCCOC(=O)CCN(CCCN(C)C)CCC(=O)OCCSCCCCCCCCCCCCCC [Lipidoid 80-O17S] |  |  |  |  |  | 45.6% |  |
| CCCCCCCCCCCCCC[Se]CCOC(=O)CCN(CCC(=O)OCC[Se]CCCCCCCCCCCCCC)CCC1CCCN1C (stereo not drawn) [Lipidoid 77-O17Se] |  |  |  |  |  | 31.0% | 37% |
| CCCCCCCCCCCCCC[Se]CCOC(=O)CCN(CCC(=O)OCC[Se]CCCCCCCCCCCCCC)CCN(C)C [Lipidoid 78-O17Se] |  |  |  |  |  | 37.8% |  |
